# Patent US20090028991A1, “Lactobacillus buchneri strain LN1284 and its use to improve aerobic stability of silage” (Pioneer Hi-Bred International, Inc., priority 2006, published 2009)
# Tested on: grass silage
# Assay: Aerobic stability of grass silage (PVC silos, method of Honig)
# Parameters: species or system ryegrass
# Description: Second cut ryegrass was harvested at PLNC. The grass was determined to have an approximate dry matter of 35%.
# Inoculation: Individual strains were supplied as fresh grown overnight culture. Cultures were adjusted to a standard concentration of 5.0×10^7 CFU/mL and applied using a syringe at a rate of 2.2 mL/kg of forage. The application rate for all strains was 1.1×10^5 CFU/g forage. Propionic acid (88%) was applied at a rate of 4.4 mL/kg fresh forage.
# PVC Silos: PVC silos were filled at a packing density of 0.288 kg DM/silo (100 kg DM/m^3); approximately 0.82-0.95 kg/silo. Silos were air infused for 24 hours on days 28 and 42, and opened after 50-60 days of ensiling.
# Aerobic Stability: The method of Honig (Proc. Of the Eurobac. Conf., P. Lingvall and S. Lindgren (ed.) (12-16 Aug. 1986) Swed. Univ. of Agric. Sci. Grass and Forage Report No. 3-1990. Pp. 76-81. Uppsala, Sweden.) was used for measuring aerobic stability (see Table 2). ROT is defined as the time, in hours, for the silage to heat 1.7° C. after exposure to air. Cumm_DD is the integral value of the area between the time ROT is attained and the end of the experiment. Aerobic dry matter loss (% dry matter) was determined relating the increase in temperature and the time to energy losses occurring in the silage.
smiles,measurement,value
"CCC(=O)O [Propionic Acid, Propionic acid]",Aerobic deterioration versus control grass silages,significantly less aerobic deterioration than the control
